From US12060351B2, “Thiadiazole IRAK4 inhibitors” (Gilead Sciences, Inc., priority 2018, dated 2024) come the findings set out here.

pEC50, pIC50: −log10 of the molar value. Where two headings read alike, the source gives them in different places.

As usually defined, the pIC50 is −log10 of the IC50, conventionally taken in molar units. In general, pEC50 refers to the EC50 on a negative log10 scale, so that one unit is a factor of ten.

Test [1] has as its target T1, IRAK4 enzyme (Homo sapiens, UniProt Q9NWZ3).
T1 construct: purchased Carna Biosciences, Chuo-ku, Kobe, Japan
T1 sequence (Q9NWZ3 1-460): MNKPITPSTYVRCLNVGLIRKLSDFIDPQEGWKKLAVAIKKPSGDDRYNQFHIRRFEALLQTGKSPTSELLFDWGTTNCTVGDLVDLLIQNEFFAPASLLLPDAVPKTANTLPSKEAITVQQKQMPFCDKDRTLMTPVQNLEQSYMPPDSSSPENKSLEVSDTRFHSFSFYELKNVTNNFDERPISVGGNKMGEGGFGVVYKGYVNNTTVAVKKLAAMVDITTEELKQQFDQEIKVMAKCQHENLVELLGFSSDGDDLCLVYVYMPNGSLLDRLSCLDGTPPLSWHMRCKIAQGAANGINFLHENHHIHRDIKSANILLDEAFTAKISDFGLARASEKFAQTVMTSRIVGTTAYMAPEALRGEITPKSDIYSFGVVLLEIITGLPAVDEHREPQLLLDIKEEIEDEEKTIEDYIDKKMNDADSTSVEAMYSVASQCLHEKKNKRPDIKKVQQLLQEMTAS
The experiment in a line: IRAK4 Biochemical Assay (TR-FRET, STK1 KinEASE). Particulars: 500 μM ATP. How it is done: IRAK4 enzyme (Carna Biosciences, Chuo-ku, Kobe, Japan) activity was measured by detecting phosphorylated peptide substrate formation using an antibody against the phosphorylated peptide substrate. This is a time-resolved fluorescence resonance energy transfer (TR-FRET) immunoassay, based on the STK1 KinEASE Assay (Cisbio, Bedford, Massachusetts). The assay was designed as a simple two-step, endpoint assay (a 5 μl enzyme reaction followed by 5 μl stop and detect Solution) performed in ProxiPlate-384 Plus plates (Perkin Elmer, Waltham, Massachusetts). […] Compounds diluted in DMSO were spotted into 384 well plates using a Labcyte® Echo 550 Liquid Handling System prior to addition of IRAK4 enzyme and peptide substrate. Reaction solutions were delivered using a Multi-Flo (Bio-Tek Instruments). The enzyme and peptide solution was incubated with compound for 15 minutes at room temp before the reaction was initiated by the addition of ATP. The standard 5 μl reaction mixture contained 500 μM ATP, 2 μM peptide (STK1 Peptide), 0.75 nM of IRAK4 in reaction buffer (50 mM HEPES, pH 7.0, 0.02% NaN3, 0.01% BSA, 0.1 mM Orthovanadate, 5 mM MgCl2, 0.025% NP-40, 1 mM DTT). After 120 min of incubation at room temperature, 5 μl of Stop and Detect Solution (1:100 Cryptate labeled anti-phosphorylated peptide antibody solution and 125 nM Tracer in a 50 mM HEPES pH 7.0 detection buffer containing sufficient EDTA) was added. The plate was then further incubated for 60 minutes at room temperature and read on Envision 2103 Multilabeled reader (PerkinElmer) with excitation/emission/FRET emission at 340 nm/615 nm/665 nm, respectively. Fluorescence intensities at 615 nm and 665 nm emission wavelengths were expressed as a ratio (665 nm/615 nm).
A general note: Time-resolved FRET reads energy transfer from a long-lived donor to a nearby acceptor.

For test [2], the system named is TNFα. The test is described as follows: IRAK4 Monocyte TNFα Cell Based Assay (LPS-stimulated, TR-FRET TNFα detection). To be noted: Homo sapiens, Monocyte, human monocytes, LPS-stimulated; Table 2 second part (compounds 33-343); read-out: EC50 MONO TNF HTRF. Also noted: species or system human. The method, then:
IRAK4 Monocyte TNFα Cell Based Assay Procedure:
The cell suspension was then plated at a density of 5,000 cells/well onto black 384 well Greiner clear bottom plates. Plates were pre-spotted with test compounds and serially diluted in DMSO where 40 nL/well were delivered using the Echo 550 acoustic liquid dispenser (Labcyte®) for a final DMSO concentration of 0.1%. Plated cells were treated with compound for 1 hour at 37° C. Cells were then stimulated with 50 pg/ml of LPS (Sigma) excluding outside columns of plate used for unstimulated cell control wells. Cells were incubated for an additional 4 hours at 37° C. Cells were then spun out of the media and 5 μl of sample were taken and analyzed for total TNFα content using the TR-FRET Human TNFα detection system (CisBio). This system utilizes two labeled antibodies (cryptate and XL665) that bind to two different epitopes of the TNFα molecule and produce FRET signal proportional to the concentration of TNFα in the sample. Detection antibodies are mixed 50:50 and 5 μL were dispensed into each well. Plates were covered with clear seals and incubated at room temp overnight. […] Percent of control was calculated as follows: % Control=100×(RatioSample−Ratio0% Stimulation)/(Ratio100% Stimulation−Ratio0% Stimulation) where unstimulated cells (0% stimulation) were the negative control and stimulated cells (100% stimulation) were used as the positive control.

Where [3] appears, read: Table 2 second part (compounds 33-343), read-out: IC50 IRAK4-HTBS.

As to `COC(=O)N[C@H]1CC[C@H](Nc2cc(-c3ccc4cc(C#N)cnn34)ncc2-c2nnc([C@H]3CC[C@H](NC(C)=O)CC3)s2)CC1` [Example 34, methyl ((1R,4r)-4-((5-(5-((1r,4R)-4-acetamidocyclohexyl)-1,3,4-thiadiazol-2-yl)-2-(3-cyanopyrrolo[1,2-b]pyridazin-7-yl)pyridin-4-yl)amino)cyclohexyl)carbamate], in test [1] (setting [3]), the pIC50 is 9.26. The pEC50 in test [2] is 8.31.

On to `CC(C)Nc1cc(-c2ccc3cc(C#N)cnn23)ncc1-c1nnc([C@H]2C[C@@](C)(O)C2)s1` [Example 199, 7-(5-(5-((1s,3s)-3-hydroxy-3-methylcyclobutyl)-1,3,4-thiadiazol-2-yl)-4-(isopropylamino)pyridin-2-yl)pyrrolo[1,2-b]pyridazine-3-carbonitrile], for which the pIC50 in test [1] (setting [3]) was 9.16. Besides, in test [2], the pEC50 was 7.42.

For the compound `CC(C)Nc1cc(-c2ccc3cc(C#N)cnn23)ncc1-c1nnc(N2C[C@H]3CC[C@@H](C2)[C@@H]3NC(=O)CN=S(C)(C)=O)s1` [Example 98, N-((1R,5S,8s)-3-(5-(6-(3-cyanopyrrolo[1,2-b]pyridazin-7-yl)-4-(isopropylamino)pyridin-3-yl)-1,3,4-thiadiazol-2-yl)-3-azabicyclo[3.2.1]octan-8-yl)-2-((dimethyl(oxo)-16-sulfanylidene)amino)acetamide], in test [1] (setting [3]), the pIC50 was 8.95. Also, in test [2], the pEC50 is 8.49.

As for `CC(C)Nc1cc(-c2ccc3cc(C#N)cnn23)ncc1-c1nnc(N2C[C@H]3CC[C@@H](C2)[C@@H]3NC(=O)[C@H]2C[C@@](C)(O)C2)s1` [Example 93, (1s,3S)-N-((1R,5S,8s)-3-(5-(6-(3-cyanopyrrolo[1,2-b]pyridazin-7-yl)-4-(isopropylamino)pyridin-3-yl)-1,3,4-thiadiazol-2-yl)-3-azabicyclo[3.2.1]octan-8-yl)-3-hydroxy-3-methylcyclobutane-1-carboxamide], the pIC50 in test [1] (setting [3]) is 8.75. Besides, the pEC50 in test [2] was 8.23.

With `CC(C)(O)C(=O)N[C@H]1CC[C@@H](c2nnc(-c3cnc(-c4ccc5cc(C#N)cnn45)cc3NC3COC3)s2)CC1` [Compound 311, N-((1s,4s)-4-(5-(6-(3-cyanopyrrolo[1,2-b]pyridazin-7-yl)-4-(oxetan-3-ylamino)pyridin-3-yl)-1,3,4-thiadiazol-2-yl)cyclohexyl)-2-hydroxy-2-methylpropanamide], in test [1] (setting [3]), the pIC50 is 9.10. Also, in test [2], the pEC50 was 7.65.

In the case of `CC(C)Nc1cc(-c2ccc3cc(C#N)cnn23)ncc1-c1nnc(N2C[C@H]3CC[C@@H](C2)[C@@H]3NC(=O)[C@H]2C[C@](C)(O)C2)s1` [Example 92, (1r,3R)-N-((1R,5S,8s)-3-(5-(6-(3-cyanopyrrolo[1,2-b]pyridazin-7-yl)-4-(isopropylamino)pyridin-3-yl)-1,3,4-thiadiazol-2-yl)-3-azabicyclo[3.2.1]octan-8-yl)-3-hydroxy-3-methylcyclobutane-1-carboxamide], the pIC50 in test [1] (setting [3]) was 8.76. In addition, the pEC50 in test [2] is 8.30.

Take `CC(=O)N[C@H]1CC[C@H](c2nnc(-c3cnc(-c4ccc5cc(C#N)cnn45)cc3NC(C)C)s2)CC1` [Example 24, N-((1r,4r)-4-(5-(6-(3-cyanopyrrolo[1,2-b]pyridazin-7-yl)-4-(isopropylamino)pyridin-3-yl)-1,3,4-thiadiazol-2-yl)cyclohexyl)acetamide]: the pIC50 in test [1] (Table 2 first part (compounds 1-32), read-out: IC50 HTRF) is above 9.00.

`CC(C)Nc1cc(-c2ccc3cc(C#N)cnn23)ncc1-c1nnc(N2C[C@H]3CC[C@@H](C2)[C@H]3O)s1` [Example 146, 7-(5-(5-((1R,5S,8r)-8-hydroxy-3-azabicyclo[3.2.1]octan-3-yl)-1,3,4-thiadiazol-2-yl)-4-(isopropylamino)pyridin-2-yl)pyrrolo[1,2-b]pyridazine-3-carbonitrile]: in test [1] (setting [3]), the pIC50 is 9.32.

In test [1] (IC50 IRAK4-HTBS, Table 2 second part (compounds 33-343)), `CC(C)Nc1cc(-c2ccc3cc(C#N)cnn23)ncc1-c1nnc([C@@H]2CC[C@H]2C(C)(C)O)s1` (racemic) [Example 88, 7-(5-(5-((1,2-trans)-2-(2-hydroxypropan-2-yl)cyclobutyl)-1,3,4-thiadiazol-2-yl)-4-(isopropylamino)pyridin-2-yl)pyrrolo[1,2-b]pyridazine-3-carbonitrile] gave a pIC50 of 9.08.
